Laboratory results reported in article PMC12620416 (Molecular Plant Pathology, 2025).
Values after ≈ are worked out from the molar mass of the structure shown.

Biological target: T1, ISXoo15 transposase (Xanthomonas oryzae, UniProt A0A0K0GFE1)
T1 construct: gene PXO_03433
Assay: biochemical
Conditions: not given

T1 sequence (A0A0K0GFE1 1-315): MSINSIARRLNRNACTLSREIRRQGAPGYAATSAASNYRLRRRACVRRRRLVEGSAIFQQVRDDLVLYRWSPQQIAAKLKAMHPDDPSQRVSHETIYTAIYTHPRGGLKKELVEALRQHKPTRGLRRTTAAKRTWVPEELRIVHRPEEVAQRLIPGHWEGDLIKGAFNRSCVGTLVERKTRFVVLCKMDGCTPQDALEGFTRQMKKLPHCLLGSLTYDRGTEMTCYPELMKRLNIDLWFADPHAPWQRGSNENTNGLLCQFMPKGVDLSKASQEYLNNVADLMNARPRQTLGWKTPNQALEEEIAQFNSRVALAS

SMILES | Kd
C=C[C@]1(C)C[C@@H](OC(=O)CSc2ncc(OC)c(O)n2)[C@]2(C)[C@H](C)CC[C@]3(CCC(=O)[C@H]32)[C@@H](C)[C@@H]1O [J9] | 187 nM

System: Xanthomonas oryzae pv. oryzae (Xoo) PXO99A
Assay: microbe, parasite or virus in culture
Conditions: read-out: EC50 (mg/L)

SMILES | EC50
C=C[C@]1(C)C[C@@H](OC(=O)CSc2ncc(OC)c(OS(=O)(=O)CC)n2)[C@]2(C)[C@H](C)CC[C@]3(CCC(=O)[C@H]32)[C@@H](C)[C@@H]1O [J1] | 0.41 ± 0.15 mg/L (≈ 0.671 µM)
C=C[C@]1(C)C[C@@H](OC(=O)CSc2ncc(OC)c(OS(=O)(=O)c3ccc(C)cc3)n2)[C@]2(C)[C@H](C)CC[C@]3(CCC(=O)[C@H]32)[C@@H](C)[C@@H]1O [J2] | 0.26 ± 0.17 mg/L (≈ 0.386 µM)
C=C[C@]1(C)C[C@@H](OC(=O)CSc2ncc(OC)c(OS(=O)(=O)c3ccc(C(F)(F)F)cc3)n2)[C@]2(C)[C@H](C)CC[C@]3(CCC(=O)[C@H]32)[C@@H](C)[C@@H]1O [J3] | 0.81 ± 0.08 mg/L (≈ 1.11 µM)
C=C[C@]1(C)C[C@@H](OC(=O)CSc2ncc(OC)c(OS(=O)(=O)c3c(F)cccc3F)n2)[C@]2(C)[C@H](C)CC[C@]3(CCC(=O)[C@H]32)[C@@H](C)[C@@H]1O [J4] | 0.34 ± 0.04 mg/L (≈ 0.489 µM)
C=C[C@]1(C)C[C@@H](OC(=O)CSc2ncc(OC)c(OS(=O)(=O)c3c(F)c(F)c(F)c(F)c3F)n2)[C@]2(C)[C@H](C)CC[C@]3(CCC(=O)[C@H]32)[C@@H](C)[C@@H]1O [J5] | 0.77 ± 0.56 mg/L (≈ 1.03 µM)
C=C[C@]1(C)C[C@@H](OC(=O)CSc2ncc(OC)c(OS(=O)(=O)c3c(C)c(C)c(C)c(C)c3C)n2)[C@]2(C)[C@H](C)CC[C@]3(CCC(=O)[C@H]32)[C@@H](C)[C@@H]1O [J6] | 0.33 ± 0.09 mg/L (≈ 0.453 µM)
C=C[C@]1(C)C[C@@H](OC(=O)CSc2ncc(OC)c(OS(=O)(=O)c3cccc(Br)c3)n2)[C@]2(C)[C@H](C)CC[C@]3(CCC(=O)[C@H]32)[C@@H](C)[C@@H]1O [J7] | 0.27 ± 0.11 mg/L (≈ 0.366 µM)
C=C[C@]1(C)C[C@@H](OC(=O)CSc2ncc(OC)c(O)n2)[C@]2(C)[C@H](C)CC[C@]3(CCC(=O)[C@H]32)[C@@H](C)[C@@H]1O [J9] | 0.12 ± 0.02 mg/L (≈ 0.231 µM)
C=C[C@]1(C)C[C@@H](OC(=O)CSc2ncc(OC)c(OS(=O)(=O)c3cccc(F)c3)n2)[C@]2(C)[C@H](C)CC[C@]3(CCC(=O)[C@H]32)[C@@H](C)[C@@H]1O [J10] | 0.2 ± 0.13 mg/L (≈ 0.295 µM)
C=C[C@]1(C)C[C@@H](OC(=O)CSc2ncc(OC)c(OS(=O)(=O)c3ccc(Br)cc3OC(F)(F)F)n2)[C@]2(C)[C@H](C)CC[C@]3(CCC(=O)[C@H]32)[C@@H](C)[C@@H]1O [J11] | 0.39 ± 0.27 mg/L (≈ 0.475 µM)
C=C[C@]1(C)C[C@@H](OC(=O)CSc2ncc(OC)c(OS(=O)(=O)c3cccc(Cl)c3F)n2)[C@]2(C)[C@H](C)CC[C@]3(CCC(=O)[C@H]32)[C@@H](C)[C@@H]1O [J12] | 0.26 ± 0.12 mg/L (≈ 0.366 µM)
C=C[C@]1(C)C[C@@H](OC(=O)CSc2ncc(OC)c(OS(=O)(=O)c3cc(Br)c(F)cc3F)n2)[C@]2(C)[C@H](C)CC[C@]3(CCC(=O)[C@H]32)[C@@H](C)[C@@H]1O [J13] | 0.22 ± 0.05 mg/L (≈ 0.284 µM)
C=C[C@]1(C)C[C@@H](OC(=O)CSc2ncc(OC)c(OS(=O)(=O)c3ccc(Cl)cc3Br)n2)[C@]2(C)[C@H](C)CC[C@]3(CCC(=O)[C@H]32)[C@@H](C)[C@@H]1O [J14] | 0.3 ± 0.02 mg/L (≈ 0.389 µM)
C=C[C@]1(C)C[C@@H](OC(=O)CSc2ncc(OC)c(OS(=O)(=O)C3CC3)n2)[C@]2(C)[C@H](C)CC[C@]3(CCC(=O)[C@H]32)[C@@H](C)[C@@H]1O [J15] | 0.37 ± 0.09 mg/L (≈ 0.594 µM)
C=C[C@]1(C)C[C@@H](OC(=O)CSc2ncc(OC)c(OS(=O)(=O)c3ccc(F)cc3)n2)[C@]2(C)[C@H](C)CC[C@]3(CCC(=O)[C@H]32)[C@@H](C)[C@@H]1O [J16] | 0.26 ± 0.03 mg/L (≈ 0.384 µM)
C=C[C@]1(C)C[C@@H](OC(=O)CSc2ncc(OC)c(OS(=O)(=O)c3ccc(F)c(F)c3F)n2)[C@]2(C)[C@H](C)CC[C@]3(CCC(=O)[C@H]32)[C@@H](C)[C@@H]1O [J17] | 0.22 ± 0.09 mg/L (≈ 0.309 µM)
C=C[C@]1(C)C[C@@H](OC(=O)CSc2ncc(OC)c(OS(=O)(=O)c3ccc(C#N)cc3)n2)[C@]2(C)[C@H](C)CC[C@]3(CCC(=O)[C@H]32)[C@@H](C)[C@@H]1O [J18] | 0.29 ± 0.09 mg/L (≈ 0.424 µM)
C=C[C@]1(C)C[C@@H](OC(=O)CSc2ncc(OC)c(OS(=O)(=O)c3c(C)cc(C)cc3C)n2)[C@]2(C)[C@H](C)CC[C@]3(CCC(=O)[C@H]32)[C@@H](C)[C@@H]1O [J19] | 0.16 ± 0.06 mg/L (≈ 0.228 µM)
C=C[C@]1(C)C[C@@H](OC(=O)CSc2ncc(OC)c(OS(=O)(=O)c3c(C)c(C)cc(C)c3C)n2)[C@]2(C)[C@H](C)CC[C@]3(CCC(=O)[C@H]32)[C@@H](C)[C@@H]1O [J20] | 0.35 ± 0.06 mg/L (≈ 0.49 µM)
C=C[C@]1(C)C[C@@H](OC(=O)CSc2ncc(OC)c(OS(=O)(=O)CCCC)n2)[C@]2(C)[C@H](C)CC[C@]3(CCC(=O)[C@H]32)[C@@H](C)[C@@H]1O [J21] | 2.79 ± 0.39 mg/L (≈ 4.37 µM)
C=C[C@]1(C)C[C@@H](OC(=O)CSc2ncc(OC)c(OS(=O)(=O)c3ccc(Cl)cc3)n2)[C@]2(C)[C@H](C)CC[C@]3(CCC(=O)[C@H]32)[C@@H](C)[C@@H]1O [J22] | 0.34 ± 0.17 mg/L (≈ 0.49 µM)
C=C[C@]1(C)C[C@@H](OC(=O)CSc2ncc(OC)c(OS(=O)(=O)c3ccc(CC)cc3)n2)[C@]2(C)[C@H](C)CC[C@]3(CCC(=O)[C@H]32)[C@@H](C)[C@@H]1O [J23] | 0.58 ± 0.07 mg/L (≈ 0.844 µM)
C=C[C@]1(C)C[C@@H](OC(=O)CSc2ncc(OC)c(OS(=O)(=O)c3ccc(OC(F)(F)F)cc3)n2)[C@]2(C)[C@H](C)CC[C@]3(CCC(=O)[C@H]32)[C@@H](C)[C@@H]1O [J24] | 0.26 ± 0.05 mg/L (≈ 0.35 µM)
